Experimental data: ChEMBL document CHEMBL4251724, “Ypaoamides B and C, Linear Lipopeptides from an Okeania sp. Marine Cyanobacterium” (J Nat Prod, 2018)
Activity calls are given as the source filed them. No cut-off for these calls is given here.

Legend:
Assay type in all cases: cell-based
L6 [1] = assay: Cytotoxicity against rat L6 cells assessed as reduction in cell viability at 10 to 40 uM after 16 hrs by MTT assay; conditions: l6, 16 h
L6 [2] = assay: Activation of AMPK in rat L6 cells assessed as glucose uptake after 16 hrs
L6 [3] = assay: Activation of AMPK in rat L6 cells assessed as glucose uptake at 40 uM in presence of AMPK inhibitor compound C after 8 hrs
L6 [4] = assay: Activation of AMPK in rat L6 cells assessed as increase in AMPK phosphorylation at 40 uM by Western blot analysis

`CO/C(=C/C(=O)N1C(=O)C=C[C@@H]1C)C/C(=C/Cl)CNC(=O)CCCCC(C)(C)C` was tested, and the Activity (L6 [1]) was “Non-Toxic” and the Activity (L6 [2]) was “Dose-dependent effect”.
`CO/C(=C/C(=O)N1C(=O)C=C[C@@H]1CC(C)C)CCNC(=O)CCCCC(C)(C)C` was tested, and the Activity (L6 [3]) was “inactive”, the Activity (L6 [1]) was “Non-Toxic” and the Activity (L6 [2]) was “Dose-dependent effect”. The Activity (L6 [4]) was “Active”.
